{"source": "patent US11298314B2", "about": "“Injectable composition for localized fat reduction without pain, edema, and side effects, and method for preparing same” (AMI PHARM CO., LTD., priority 2017, dated 2022);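 on grade of skin lesion (erythema), 1 hour after administration: grades − to ++++ mean no to extremely severe erythema versus before injection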;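 on grade of skin lesion (erythema), 2 hours after administration: grades − to ++++ mean no to extremely severe erythema versus before injection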;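 on grade of skin lesion (erythema), Immediately after administration: grades − to ++++ mean no to extremely severe erythema versus before injection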", "key": {"paw of the rats": {"tested_on": "paw of the rats", "experiment": "Rat paw edema", "format": "in vivo, Sprague Dawley rats", "details": "for degree of edema in words: 2 hours after administration, rat paw; for degree of edema, 1 hour after administration / degree of edema, 2 hours after administration / degree of edema, Immediately after administration: 0.1 ml into rat paw", "experimental": "(§1) To evaluate the degree of edema, each test compositions described above were injected into the paw of the rats. Specifically, male Sprague Dawley rats (6 weeks old) were purchased and used after one week of adaptation. The rats (body weight: 170˜200 g) were randomly selected and the thickness of the rat paw were measured with a caliper before the administration of the test compositions. In order to observe the edema, 0.1 ml of PBS and the various test compositions were administered to the paws of the rats. Measurements of the […] were performed by a caliper immediately before the injection, immediately after the injection, and 1 or 2 hours after the injection. In addition, when the thickness was measured, the skin lesion of the injection site was observed by photographing the sole of the paw (using a 4×4 cm scale).\nThe degree of edema was evaluated as 0 to 4 grades."}, "[1]": {"experiment": "Formulation stability of PPC injectable preparations: property, transparency, particle size, pH", "details": "for bile acid/PPC molar ratio below which a substantially stable formulation did not occur: PPC 5.0%; for bile acid concentration at which stable injectable preparations can be made: based on PPC 5.0%", "protocol": "The particle size was measured using a nano particle size analyzer (Microtrac Wave, MICROTRACT, USA). […] The transparency was measured using a spectrophotometer (CM-3600d, KONICA MINOLTA, JAPAN). The pH was measured with a pH meter (ST3100, OHAUS, GERMANY), and the isotonicity was measured with an osmotic pressure meter (Vapro 5600, Elitech Group, Tokyo, Japan), and viscosity was analyzed using a viscometer (Digital Viscometer CL-2, CAS, Korea).\nThe washed and sterilized preparation tank was charged with the water for injection (at room temperature), and phosphatidylcholine (PPC) and benzyl alcohol were added thereto, and the mixture was stirred at 200 RPM for 2 hours under the condition of nitrogen pressure, shading and room temperature. After the completion of stirring, the mixture was transferred to an ultra-high pressure homogenizer (Nano Disperser NLM100, Ilshin Autoclave, Korea) with a nitrogen pressure. Ultra-high pressure homogenization (dispersion) was carried out at 12,000 psi for 7 cycles, and the particles were finely pulverized. Then, the pH was adjusted. After filtration through a 0.2 μm filter, the vial was filled and sealed.\nSpecifically, the water for injection was put into the preparation tank which was cleaned and sterilized (room temperature), and sodium hydroxide was added to the water for injection. Then deoxycholic acid and benzyl alcohol were added, stirred and dissolved. Then, phosphatidylcholine was added thereto, and the mixture was stirred at 200 RPM for about 24 hours under shading, sealing, room temperature (25° C.), and nitrogen pressure. After completion of the stirring, the pH was adjusted (if necessary, with additional sodium hydroxide or hydrochloric acid), and it was filtered through a 0.2 μm filter, and filled into the vial and sealed.\nThen glycocholic acid and benzyl alcohol were added, stirred and dissolved. Then, phosphatidylcholine was added thereto, and the mixture was stirred at 200 RPM for about 24 hours under shading, sealing, room temperature (25° C.), and nitrogen pressure. After completion of the stirring, the pH was adjusted (if necessary, with additional sodium hydroxide or 0.001-0.6% of hydrochloric acid), and it was filtered through a 0.2 μm filter, and filled into the vial and sealed.\nThe formulation stability of the PPC injectable compositions solubilized with glycocholic acid (GCA) in Tables 3 and 4 was evaluated immediately after the preparation and 30 days after the preparation (refrigerated storage)."}, "[2]": {"tested_on": "tissues of the injected area (rat paw)", "experiment": "H&E staining histological test (inflammation) of injected rat paw", "format": "in vivo, Sprague Dawley rats", "details": "for Inflammation (H&E), BA % (w/v) 1.0: bile acid single composition 1.0% (w/v), injected rat paw", "experimental": "The tissues of the injected area were dissected, fixed with 10% formalin, and then the specimen was prepared and images were captured using an optical microscope. The degree of inflammation was evaluated as follows."}, "sole of the rat paws": {"tested_on": "sole of the rat paws", "experiment": "Measurement of skin lesion (erythema) on rat paw", "format": "in vivo, Sprague Dawley rats", "details": "for skin lesion (erythema) in words: 2 hours after administration", "experimental": "as §1\nThe grades of skin lesion were evaluated as 0 to 4 grades."}, "[3]": {"details": "bile acid single composition 1.0% (w/v)"}, "[4]": {"details": "bile acid single composition 2.5% (w/v)"}, "[5]": {"details": "bile acid single composition 5.0% (w/v)"}, "[6]": {"details": "bile acid single composition 7.5% (w/v)"}}, "data": [{"smiles": "C[C@H](CCC(=O)O)[C@H]1CC[C@H]2[C@@H]3C[C@H](O)[C@@H]4C[C@H](O)CC[C@]4(C)[C@H]3CC[C@]12C", "note": "[HDCA, (4R)-4-[(3R,5R,6S,8S,9S,10R,13R,14S,17R)-3,6-dihydroxy-10,13-dimethyl-2,3,4,5,6,7,8,9,11,12,14,15,16,17-tetradecahydro-1H-cyclopenta[a]phenanthren-17-yl]pentanoic acid]", "values": [{"measurement": "degree of edema in words", "setting": "paw of the rats; listed as HDCA 2.5%", "value": "“severe” and “extremely severe”"}, {"measurement": "degree of edema, 1 hour after administration", "setting": "paw of the rats; [3]", "value": "++ (moderate edema [++, (the degree of swelling was 20-40% compared to before the injection)])"}, {"measurement": "degree of edema, 2 hours after administration", "setting": "paw of the rats; [3]", "value": "+++ (severe edema [+++, (the degree of swelling was 40-60% compared to before the injection)])"}, {"measurement": "degree of edema, Immediately after administration", "setting": "paw of the rats; [3]", "value": "++ (moderate edema [++, (the degree of swelling was 20-40% compared to before the injection)])"}, {"measurement": "degree of edema, 1 hour after administration", "setting": "paw of the rats; [4]", "value": "++ (moderate edema [++, (the degree of swelling was 20-40% compared to before the injection)])"}, {"measurement": "degree of edema, 2 hours after administration", "setting": "paw of the rats; [4]", "value": "+++ (severe edema [+++, (the degree of swelling was 40-60% compared to before the injection)])"}, {"measurement": "degree of edema, Immediately after administration", "setting": "paw of the rats; [4]", "value": "++ (moderate edema [++, (the degree of swelling was 20-40% compared to before the injection)])"}, {"measurement": "degree of edema, 1 hour after administration", "setting": "paw of the rats; [5]", "value": "++++ (extremely severe edema [++++, (the degree of swelling was 60% or more compared to before the injection)])"}, {"measurement": "degree of edema, 2 hours after administration", "setting": "paw of the rats; [5]", "value": "++++ (extremely severe edema [++++, (the degree of swelling was 60% or more compared to before the injection)])"}, {"measurement": "degree of edema, Immediately after administration", "setting": "paw of the rats; [5]", "value": "++ (moderate edema [++, (the degree of swelling was 20-40% compared to before the injection)])"}, {"measurement": "degree of edema, 1 hour after administration", "setting": "paw of the rats; [6]", "value": "++++ (extremely severe edema [++++, (the degree of swelling was 60% or more compared to before the injection)])"}, {"measurement": "degree of edema, 2 hours after administration", "setting": "paw of the rats; [6]", "value": "++++ (extremely severe edema [++++, (the degree of swelling was 60% or more compared to before the injection)])"}, {"measurement": "degree of edema, Immediately after administration", "setting": "paw of the rats; [6]", "value": "++ (moderate edema [++, (the degree of swelling was 20-40% compared to before the injection)])"}, {"measurement": "bile acid/PPC molar ratio below which a substantially stable formulation did not occur", "setting": "[1]", "value": "less than 0.95"}, {"measurement": "bile acid concentration at which stable injectable preparations can be made", "setting": "[1]", "value": "≥ 2.3", "unit": "%"}, {"measurement": "Inflammation (H&E), BA % (w/v) 1.0", "setting": "[2]", "value": "+++"}, {"measurement": "skin lesion (erythema) in words", "setting": "sole of the rat paws; listed as HDCA 1.0%", "value": "Mild"}, {"measurement": "skin lesion (erythema) in words", "setting": "sole of the rat paws; listed as HDCA 2.5%", "value": "“severe” and “extremely severe”"}, {"measurement": "grade of skin lesion (erythema), 1 hour after administration", "setting": "sole of the rat paws; [3]", "value": "+"}, {"measurement": "grade of skin lesion (erythema), 2 hours after administration", "setting": "sole of the rat paws; [3]", "value": "+"}, {"measurement": "grade of skin lesion (erythema), Immediately after administration", "setting": "sole of the rat paws; [3]", "value": "+"}, {"measurement": "grade of skin lesion (erythema), 1 hour after administration", "setting": "sole of the rat paws; [4]", "value": "+++"}, {"measurement": "grade of skin lesion (erythema), 2 hours after administration", "setting": "sole of the rat paws; [4]", "value": "+++"}, {"measurement": "grade of skin lesion (erythema), Immediately after administration", "setting": "sole of the rat paws; [4]", "value": "+"}, {"measurement": "grade of skin lesion (erythema), 1 hour after administration", "setting": "sole of the rat paws; [5]", "value": "++++"}, {"measurement": "grade of skin lesion (erythema), 2 hours after administration", "setting": "sole of the rat paws; [5]", "value": "++++"}, {"measurement": "grade of skin lesion (erythema), Immediately after administration", "setting": "sole of the rat paws; [5]", "value": "+"}, {"measurement": "grade of skin lesion (erythema), 1 hour after administration", "setting": "sole of the rat paws; [6]", "value": "++++"}, {"measurement": "grade of skin lesion (erythema), 2 hours after administration", "setting": "sole of the rat paws; [6]", "value": "++++"}, {"measurement": "grade of skin lesion (erythema), Immediately after administration", "setting": "sole of the rat paws; [6]", "value": "++"}]}, {"smiles": "C[C@H](CCC(=O)NCCS(=O)(=O)O)[C@H]1CC[C@H]2C3CC[C@@H]4C[C@H](O)CC[C@]4(C)[C@H]3C[C@H](O)[C@]12C", "note": "(stereo partly drawn) [TDCA, 2-[[(4R)-4-[(3R,5R,9S,10S,12S,13R,14S,17R)-3,12-dihydroxy-10,13-dimethyl-2,3,4,5,6,7,8,9,11,12,14,15,16,17-tetradecahydro-1H-cyclopenta[a]phenanthren-17-yl]pentanoyl]amino]ethanesulfonic acid]", "values": [{"measurement": "degree of edema in words", "setting": "paw of the rats; listed as TDCA 2.5%", "value": "“severe” and “extremely severe”"}, {"measurement": "degree of edema, 1 hour after administration", "setting": "paw of the rats; [3]", "value": "+++ (severe edema [+++, (the degree of swelling was 40-60% compared to before the injection)])"}, {"measurement": "degree of edema, 2 hours after administration", "setting": "paw of the rats; [3]", "value": "+++ (severe edema [+++, (the degree of swelling was 40-60% compared to before the injection)])"}, {"measurement": "degree of edema, Immediately after administration", "setting": "paw of the rats; [3]", "value": "++ (moderate edema [++, (the degree of swelling was 20-40% compared to before the injection)])"}, {"measurement": "degree of edema, 1 hour after administration", "setting": "paw of the rats; [4]", "value": "+++ (severe edema [+++, (the degree of swelling was 40-60% compared to before the injection)])"}, {"measurement": "degree of edema, 2 hours after administration", "setting": "paw of the rats; [4]", "value": "+++ (severe edema [+++, (the degree of swelling was 40-60% compared to before the injection)])"}, {"measurement": "degree of edema, Immediately after administration", "setting": "paw of the rats; [4]", "value": "++ (moderate edema [++, (the degree of swelling was 20-40% compared to before the injection)])"}, {"measurement": "degree of edema, 1 hour after administration", "setting": "paw of the rats; [5]", "value": "++++ (extremely severe edema [++++, (the degree of swelling was 60% or more compared to before the injection)])"}, {"measurement": "degree of edema, 2 hours after administration", "setting": "paw of the rats; [5]", "value": "++++ (extremely severe edema [++++, (the degree of swelling was 60% or more compared to before the injection)])"}, {"measurement": "degree of edema, Immediately after administration", "setting": "paw of the rats; [5]", "value": "++ (moderate edema [++, (the degree of swelling was 20-40% compared to before the injection)])"}, {"measurement": "degree of edema, 1 hour after administration", "setting": "paw of the rats; [6]", "value": "++++ (extremely severe edema [++++, (the degree of swelling was 60% or more compared to before the injection)])"}, {"measurement": "degree of edema, 2 hours after administration", "setting": "paw of the rats; [6]", "value": "++++ (extremely severe edema [++++, (the degree of swelling was 60% or more compared to before the injection)])"}, {"measurement": "degree of edema, Immediately after administration", "setting": "paw of the rats; [6]", "value": "++ (moderate edema [++, (the degree of swelling was 20-40% compared to before the injection)])"}, {"measurement": "bile acid/PPC molar ratio below which a substantially stable formulation did not occur", "setting": "[1]", "value": "less than 0.74"}, {"measurement": "bile acid concentration at which stable injectable preparations can be made", "setting": "[1]", "value": "≥ 2.3", "unit": "%"}, {"measurement": "Inflammation (H&E), BA % (w/v) 1.0", "setting": "[2]", "value": "++"}, {"measurement": "degree of inflammation (H&E) in words", "setting": "[2]; rats sacrificed at 3 hours, injected paw", "value": "Moderate"}, {"measurement": "skin lesion (erythema) in words", "setting": "sole of the rat paws; listed as TDCA 1.0%", "value": "Moderate"}, {"measurement": "skin lesion (erythema) in words", "setting": "sole of the rat paws; listed as TDCA 2.5%", "value": "“severe” and “extremely severe”"}, {"measurement": "grade of skin lesion (erythema), 1 hour after administration", "setting": "sole of the rat paws; [3]", "value": "+++"}, {"measurement": "grade of skin lesion (erythema), 2 hours after administration", "setting": "sole of the rat paws; [3]", "value": "++"}, {"measurement": "grade of skin lesion (erythema), Immediately after administration", "setting": "sole of the rat paws; [3]", "value": "+"}, {"measurement": "grade of skin lesion (erythema), 1 hour after administration", "setting": "sole of the rat paws; [4]", "value": "+++"}, {"measurement": "grade of skin lesion (erythema), 2 hours after administration", "setting": "sole of the rat paws; [4]", "value": "+++"}, {"measurement": "grade of skin lesion (erythema), Immediately after administration", "setting": "sole of the rat paws; [4]", "value": "++"}, {"measurement": "grade of skin lesion (erythema), 1 hour after administration", "setting": "sole of the rat paws; [5]", "value": "++++"}, {"measurement": "grade of skin lesion (erythema), 2 hours after administration", "setting": "sole of the rat paws; [5]", "value": "++++"}, {"measurement": "grade of skin lesion (erythema), Immediately after administration", "setting": "sole of the rat paws; [5]", "value": "++"}, {"measurement": "grade of skin lesion (erythema), 1 hour after administration", "setting": "sole of the rat paws; [6]", "value": "++++"}, {"measurement": "grade of skin lesion (erythema), 2 hours after administration", "setting": "sole of the rat paws; [6]", "value": "++++"}, {"measurement": "grade of skin lesion (erythema), Immediately after administration", "setting": "sole of the rat paws; [6]", "value": "++"}]}]}
